According to paper PMC6917776, “Discovery of a chemical probe for PRDM9” (Nature Communications, 2019):
Several values for one entry are separate records, joined by “and”; a condition that tells them apart may be missing. Equal entries are not always repeated.

System: H3K4me3 at known PRDM9 binding loci and control TSS loci
Test: ChIP-qPCR of H3K4me3 in PRDM9-transfected HEK293T cells
Type: cell-based, human
Conditions: for 2^-dCq / dCq (IP-Input) / 2^-dCq (H3K4me3 IP relative to H3 IP) / Cq / 2^-dCq (H3K4me3 ChIP relative to H3 ChIP) / 2^-dCq (H3K4me3 ChIP-qPCR, IP relative to H3) / <Cq>: Antibody H3K4me3; for 2^-dCq / dCq (IP-Input) / Cq / <Cq>: Figure 7 Replicate 2; for 2^-dCq (H3K4me3 IP relative to H3 IP): ChIP-qPCR Replicate 1; for Cq: ChIP-qPCR single well; for 2^-dCq (H3K4me3 ChIP relative to H3 ChIP): Replicate 1; for 2^-dCq (H3K4me3 ChIP-qPCR, IP relative to H3) / H3K4me3 ChIP-qPCR 2^-dCq (IP-Input): Replicate 2; for H3K4me3 ChIP-qPCR 2^-dCq (IP-Input): H3K4me3 antibody relative to H3; for <Cq>: mean of two wells
Procedure: ChIP-qPCR assays were then conducted on known PRDM9 binding loci[26]. Ectopic expression of PRDM9^WT increased trimethylation of H3K4 (H3K4me3) at previously described PRDM9-specific intragenic and intergenic regions[26] (Fig. 7; Supplementary Fig. 12). […] The observed increases in H3K4me3 levels at intragenic and intergenic regions are therefore due directly to PRDM9 PR domain-dependent methylation activity, rather than through recruitment of other H3K4 methyltransferases or other indirect mechanisms.
ChIP qPCR analyses of H3K4me3 methylation levels of known PRDM9-bound loci and control loci. […] Concentrations used (µM) are indicated below each plot. (a–d) represent reported loci of PRDM9 methylation; (e, f) are transcriptional start sites (TSSs) which are not known loci of PRDM9 methylation. Data are normalized to total H3 and are presented as the mean ± upper and lower limits from two replicates. Representative plots of two independent experiments are shown in this figure. The coordinates and the genomic features associated with the assayed loci are indicated above each plot. Left Tailed Student's t-tests were performed by comparing DMSO (0 µM) treated cells to compound treated cells that have been transfected with the same plasmids. *p-value < 0.05 and **p-value < 0.01. Note that here we show a representative of two independent experiments (mean ± s.d of technical replicates) for our ChIP-qPCR experiments. Data obtained using this technique are inherently noisy due to stochastic differences in gene activity/histone positioning. Data are thus typically presented as representative rather than averaged. Source data are provided as a Source Data file.
HEK293T cells were transfected with 37.5 μg empty pcDNA3.1(+) vector (Invitrogen), or the same vector expressing either wild-type PRDM9 (PRDM9^WT) or a catalytically dead PRDM9 mutant (PRDM9^Mut) and 75 μL of Lipofectamine 2000 (Invitrogen) in 6 mL of Opti-MEM (GIBCO) for 48 h. […] ChIP assays were then performed as previously described. Briefly, cells were fixed in 1% formaldehyde and the fixation reaction was quenched in a final concentration of 0.1 M glycine. Cell pellets were first lysed in LB1 (50 mM HEPES-KOH pH 7.5, 140 mM NaCl, 1 mM EDTA, 10% Glycerol, 0.5% Igepal, 0.25% TritonX), washed once in LB2 Buffer (10 mM Tris-HCl pH 8, 200 mM NaCl, 1 mM EDTA, 0.5 mM EGTA) and finally sonicated in LB3 buffer (10 mM Tris-HCl pH 8, 100 mM NaCl, 1 mM EDTA, 0.5 mM EGTA, 0.1% Sodium deoxycholate, 0.5% N-laurosylsarcosine) using a bioruptor (Diagenode). Thereafter, 50 μg of chromatin was subjected to ChIP using the following antibodies purchased from Abcam: α-H3K4me3 (1:200, ab8580, lot:GR3207339-1) and α-H3 (1:250, ab1791, lot:GR300978-4). After extensive washing in RIPA wash buffer (50 mM HEPES-KOH pH 7.6, 100 mM LiCl, 1 mM EDTA, 1% Igepal, 0.7% Sodium Deoxycholate), DNA was eluted from beads. The eluted DNA was treated with RNase A and Proteinase K and purified using the QIAGEN PCR purification kit. qPCR was then carried out targeting the indicated loci (Supplementary Table 3). Upper and lower limits were defined by |2^−(dCq±s) − 2^−(∆Cq)|, where s = √((Standard deviation of Input Cq)^2 + (Standard deviation of Target Cq)^2). […]
formation. ChIP qPCR analyses of H3K4me3 methylation levels at known PRDM9-bound and control loci. Cells transfected with empty vector (negative control) or vectors overexpressing either wild-type PRDM9 (PRDM9 WT) or catalytically dead PRDM9 (PRDM9 MUT) were […]
Panels a-d represent reported loci of […]
(1 picture or pasted object on this page, not shown here)
PRDM9 methylation; e-f are TSSs which are not known sites of PRDM9 methylation. Data are normalized to total H3 and are presented as the mean ± upper and lower limits from two […]

[1] = Figure 7 E chr12:6643945-6644023 TSS (GAPDH), Plasmid Empty Vector, Drug Conc. 5
[2] = Figure 7 E chr12:6643945-6644023 TSS (GAPDH), Plasmid Empty Vector, Drug Conc. 10
[3] = Figure 7 E chr12:6643945-6644023 TSS (GAPDH), Plasmid PRDM9WT, Drug Conc. 5
[4] = Figure 7 E chr12:6643945-6644023 TSS (GAPDH), Plasmid PRDM9WT, Drug Conc. 10
[5] = Figure 7 F chr19:8510167-8510261 TSS (HNRNPM), Plasmid Empty Vector, Drug Conc. 5
[6] = Figure 7 F chr19:8510167-8510261 TSS (HNRNPM), Plasmid Empty Vector, Drug Conc. 10
[7] = Figure 7 F chr19:8510167-8510261 TSS (HNRNPM), Plasmid PRDM9WT, Drug Conc. 5
[8] = Figure 7 F chr19:8510167-8510261 TSS (HNRNPM), Plasmid PRDM9WT, Drug Conc. 10

COc1cc(OC)cc(-c2noc(N3CCN(C)C4(CCN(c5ccccc5)CC4)C3)n2)c1 [MRK-740-NC]
2^-dCq (Plasmid PRDM9WT, Drug Conc. 5): 34.845 | dCq (IP-Input) (Plasmid PRDM9WT, Drug Conc. 5): -5.123 | 2^-dCq (Plasmid PRDM9WT, Drug Conc. 10): 50.1539 | dCq (IP-Input) (Plasmid PRDM9WT, Drug Conc. 10): -5.648 | 2^-dCq (H3K4me3 IP relative to H3 IP) [1]: 96.9166 | 2^-dCq (H3K4me3 IP relative to H3 IP) [2]: 40.6216 | 2^-dCq (H3K4me3 IP relative to H3 IP) [3]: 33.0164 | 2^-dCq (H3K4me3 IP relative to H3 IP) [4]: 25.1288 | 2^-dCq (H3K4me3 IP relative to H3 IP) [5]: 88.9762 | 2^-dCq (H3K4me3 IP relative to H3 IP) [6]: 43.9056 | 2^-dCq (H3K4me3 IP relative to H3 IP) [7]: 32.8222 | 2^-dCq (H3K4me3 IP relative to H3 IP) [8]: 26.0973 | Cq (Plasmid PRDM9WT, Drug Conc. 5): 21.4925 and 21.6408 | Cq (Plasmid PRDM9WT, Drug Conc. 10): 21.2248 and 20.9811 | 2^-dCq (H3K4me3 ChIP relative to H3 ChIP) (Figure 7 A, chr2:128811847-128811944 (Intergenic), Plasmid Empty Vector, Drug Conc. 5): 0.5813 | 2^-dCq (H3K4me3 ChIP relative to H3 ChIP) (Figure 7 A, chr2:128811847-128811944 (Intergenic), Plasmid Empty Vector, Drug Conc. 10): 0.3956 | 2^-dCq (H3K4me3 ChIP relative to H3 ChIP) (Figure 7 A, chr2:128811847-128811944 (Intergenic), Plasmid PRDM9WT, Drug Conc. 5): 2.494 | 2^-dCq (H3K4me3 ChIP relative to H3 ChIP) (Figure 7 A, chr2:128811847-128811944 (Intergenic), Plasmid PRDM9WT, Drug Conc. 10): 2.2717 | 2^-dCq (H3K4me3 ChIP relative to H3 ChIP) (Figure 7 B, chr8:49932778-49932856 (Intergenic), Plasmid Empty Vector, Drug Conc. 5): 0.3925 | 2^-dCq (H3K4me3 ChIP relative to H3 ChIP) (Figure 7 B, chr8:49932778-49932856 (Intergenic), Plasmid Empty Vector, Drug Conc. 10): 0.1726 | 2^-dCq (H3K4me3 ChIP relative to H3 ChIP) (Figure 7 B, chr8:49932778-49932856 (Intergenic), Plasmid PRDM9WT, Drug Conc. 5): 4.749 | 2^-dCq (H3K4me3 ChIP relative to H3 ChIP) (Figure 7 B, chr8:49932778-49932856 (Intergenic), Plasmid PRDM9WT, Drug Conc. 10): 4.289 | 2^-dCq (H3K4me3 ChIP relative to H3 ChIP) (Figure 7 C, chr2:40281930-40282015 Intragenic (SLC8A1-AS1), Plasmid Empty Vector, Drug Conc. 5): 0.3263 | 2^-dCq (H3K4me3 ChIP relative to H3 ChIP) (Figure 7 C, chr2:40281930-40282015 Intragenic (SLC8A1-AS1), Plasmid Empty Vector, Drug Conc. 10): 0.2399 | 2^-dCq (H3K4me3 ChIP relative to H3 ChIP) (Figure 7 C, chr2:40281930-40282015 Intragenic (SLC8A1-AS1), Plasmid PRDM9WT, Drug Conc. 5): 5.248 | 2^-dCq (H3K4me3 ChIP relative to H3 ChIP) (Figure 7 C, chr2:40281930-40282015 Intragenic (SLC8A1-AS1), Plasmid PRDM9WT, Drug Conc. 10): 4.126 | H3K4me3 levels at PRDM9-dependent intragenic and intergenic loci (ChIP-qPCR, in words) (HEK293T transfected with wild-type PRDM9, 48 h, various concentrations): negligible impact | 2^-dCq (H3K4me3 ChIP-qPCR, IP relative to H3) (Figure 7 D chr3:165514798-165514911 Intragenic (BCHE), Plasmid Empty Vector, Drug Conc. 5): 0.55 | 2^-dCq (H3K4me3 ChIP-qPCR, IP relative to H3) (Figure 7 D chr3:165514798-165514911 Intragenic (BCHE), Plasmid Empty Vector, Drug Conc. 10): 0.9804 | 2^-dCq (H3K4me3 ChIP-qPCR, IP relative to H3) (Figure 7 D chr3:165514798-165514911 Intragenic (BCHE), Plasmid PRDM9WT, Drug Conc. 5): 6.945 | 2^-dCq (H3K4me3 ChIP-qPCR, IP relative to H3) (Figure 7 D chr3:165514798-165514911 Intragenic (BCHE), Plasmid PRDM9WT, Drug Conc. 10): 8.326 | 2^-dCq (H3K4me3 ChIP-qPCR, IP relative to H3) [1]: 90.8317 | 2^-dCq (H3K4me3 ChIP-qPCR, IP relative to H3) [2]: 79.4548 | 2^-dCq (H3K4me3 ChIP-qPCR, IP relative to H3) [3]: 29.3928 | 2^-dCq (H3K4me3 ChIP-qPCR, IP relative to H3) [4]: 64.1533 | 2^-dCq (H3K4me3 ChIP-qPCR, IP relative to H3) [5]: 64.4199 | 2^-dCq (H3K4me3 ChIP-qPCR, IP relative to H3) [6]: 72.9088 | 2^-dCq (H3K4me3 ChIP-qPCR, IP relative to H3) [7]: 34.845 | 2^-dCq (H3K4me3 ChIP-qPCR, IP relative to H3) [8]: 50.1539 | H3K4me3 ChIP-qPCR 2^-dCq (IP-Input) (chr2:40281930-40282015 Intragenic (SLC8A1-AS1), Figure 7 C, Empty Vector, Drug Conc. 5): 0.5453 | H3K4me3 ChIP-qPCR 2^-dCq (IP-Input) (chr2:40281930-40282015 Intragenic (SLC8A1-AS1), Figure 7 C, Empty Vector, Drug Conc. 10): 0.744 | H3K4me3 ChIP-qPCR 2^-dCq (IP-Input) (chr2:40281930-40282015 Intragenic (SLC8A1-AS1), Figure 7 C, PRDM9WT, Drug Conc. 5): 5.233 | H3K4me3 ChIP-qPCR 2^-dCq (IP-Input) (chr2:40281930-40282015 Intragenic (SLC8A1-AS1), Figure 7 C, PRDM9WT, Drug Conc. 10): 7.127 | H3K4me3 ChIP-qPCR 2^-dCq (IP-Input) (chr2:128811847-128811944 (Intergenic), Figure 7 A, Empty Vector, Drug Conc. 5): 1.312 | H3K4me3 ChIP-qPCR 2^-dCq (IP-Input) (chr2:128811847-128811944 (Intergenic), Figure 7 A, Empty Vector, Drug Conc. 10): 1.714 | H3K4me3 ChIP-qPCR 2^-dCq (IP-Input) (chr2:128811847-128811944 (Intergenic), Figure 7 A, PRDM9WT, Drug Conc. 5): 3.31 | H3K4me3 ChIP-qPCR 2^-dCq (IP-Input) (chr2:128811847-128811944 (Intergenic), Figure 7 A, PRDM9WT, Drug Conc. 10): 4.0213 | H3K4me3 ChIP-qPCR 2^-dCq (IP-Input) (chr8:49932778-49932856 (Intergenic), Figure 7 B, Empty Vector, Drug Conc. 5): 0.869 | H3K4me3 ChIP-qPCR 2^-dCq (IP-Input) (chr8:49932778-49932856 (Intergenic), Figure 7 B, Empty Vector, Drug Conc. 10): 0.9683 | H3K4me3 ChIP-qPCR 2^-dCq (IP-Input) (chr8:49932778-49932856 (Intergenic), Figure 7 B, PRDM9WT, Drug Conc. 5): 6.096 | H3K4me3 ChIP-qPCR 2^-dCq (IP-Input) (chr8:49932778-49932856 (Intergenic), Figure 7 B, PRDM9WT, Drug Conc. 10): 6.298 | <Cq> (Plasmid PRDM9WT, Drug Conc. 5): 21.5667 | <Cq> (Plasmid PRDM9WT, Drug Conc. 10): 21.103
